Experimental data published in PubChem BioAssay (NCI).
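Assay format: 96-well plates, 48-hour exposure. GI50 marks 50% less growth. TGI is the concentration that stops growth completely.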

How the values were obtained:
Test in all cases: NCI tumour cell line growth inhibition, 48 h
SW-620 colon = system: SW-620 colon
786-0 renal = system: 786-0 renal
KM12 colon = system: KM12 colon
SNB-75 CNS = system: SNB-75 CNS
OVCAR-8 ovarian = system: OVCAR-8 ovarian
HCC-2998 colon = system: HCC-2998 colon
UACC-62 melanoma = system: UACC-62 melanoma
HS 578T breast = system: HS 578T breast
NCI-H23 lung = system: NCI-H23 lung
HT29 colon = system: HT29 colon
CAKI-1 renal = system: CAKI-1 renal
OVCAR-4 ovarian = system: OVCAR-4 ovarian
OVCAR-3 ovarian = system: OVCAR-3 ovarian
IGROV1 ovarian = system: IGROV1 ovarian
SK-OV-3 ovarian = system: SK-OV-3 ovarian
MOLT-4 leukemia = system: MOLT-4 leukemia
A498 renal = system: A498 renal
SR leukemia = system: SR leukemia
RPMI-8226 leukemia = system: RPMI-8226 leukemia
A549 NSCLC = system: A549 NSCLC
SF-295 CNS = system: SF-295 CNS
TK-10 renal = system: TK-10 renal
UO-31 renal = system: UO-31 renal
HL-60(TB) leukemia = system: HL-60(TB) leukemia
UACC-257 melanoma = system: UACC-257 melanoma
HOP-92 NSCLC = system: HOP-92 NSCLC
SF-268 CNS = system: SF-268 CNS
SK-MEL-28 melanoma = system: SK-MEL-28 melanoma
CCRF-CEM leukemia = system: CCRF-CEM leukemia
M14 melanoma = system: M14 melanoma
HCT-116 colon = system: HCT-116 colon
MCF7 breast = system: MCF7 breast
OVCAR-5 ovarian = system: OVCAR-5 ovarian
K-562 leukemia = system: K-562 leukemia
LOX IMVI melanoma = system: LOX IMVI melanoma
NCI-H522 lung = system: NCI-H522 lung
MDA-MB-435 = system: MDA-MB-435
SNB-19 CNS = system: SNB-19 CNS
NCI/ADR-RES ovarian = system: NCI/ADR-RES ovarian
RXF 393 renal = system: RXF 393 renal
ACHN renal = system: ACHN renal
DU-145 prostate = system: DU-145 prostate
PC-3 prostate = system: PC-3 prostate
MDA-MB-231 breast = system: MDA-MB-231 breast
MALME-3M melanoma = system: MALME-3M melanoma
SF-539 CNS = system: SF-539 CNS
SK-MEL-2 melanoma = system: SK-MEL-2 melanoma
U251 CNS = system: U251 CNS
SK-MEL-5 melanoma = system: SK-MEL-5 melanoma
HCT-15 colon = system: HCT-15 colon
NCI-H460 lung = system: NCI-H460 lung
SN12C renal = system: SN12C renal
T-47D breast = system: T-47D breast
BT-549 breast = system: BT-549 breast
HOP-62 NSCLC = system: HOP-62 NSCLC
EKVX NSCLC = system: EKVX NSCLC
NCI-H226 lung = system: NCI-H226 lung
COLO 205 colon = system: COLO 205 colon

CCOc1ccc(/C=C/C(=O)c2ccccc2)cc1
GI50 (SW-620 colon): 7.73 µM
TGI (SW-620 colon): 21.1 µM
GI50 (786-0 renal): 20.6 µM
TGI (786-0 renal): 39.1 µM
GI50 (KM12 colon): 10.7 µM
TGI (KM12 colon): 23.6 µM
GI50 (SNB-75 CNS): 22.4 µM
TGI (SNB-75 CNS): 51.4 µM
GI50 (OVCAR-8 ovarian): 14.8 µM
TGI (OVCAR-8 ovarian): 34.6 µM
GI50 (HCC-2998 colon): 15.6 µM
TGI (HCC-2998 colon): 29.7 µM
GI50 (UACC-62 melanoma): 17 µM
TGI (UACC-62 melanoma): 36.5 µM
GI50 (HS 578T breast): 20.4 µM
TGI (HS 578T breast): 56.3 µM
GI50 (NCI-H23 lung): 16.9 µM
TGI (NCI-H23 lung): 37.2 µM
GI50 (HT29 colon): 13.8 µM
TGI (HT29 colon): 29.6 µM
GI50 (CAKI-1 renal): 14.1 µM
TGI (CAKI-1 renal): 30.7 µM
GI50 (OVCAR-4 ovarian): 21.5 µM
TGI (OVCAR-4 ovarian): 60.5 µM
GI50 (OVCAR-3 ovarian): 15.5 µM
TGI (OVCAR-3 ovarian): 29.3 µM
GI50 (IGROV1 ovarian): 16.3 µM
TGI (IGROV1 ovarian): 39.7 µM
GI50 (SK-OV-3 ovarian): 21.5 µM
TGI (SK-OV-3 ovarian): 56 µM
GI50 (MOLT-4 leukemia): 18.6 µM
TGI (MOLT-4 leukemia): 94.9 µM
GI50 (A498 renal): 16.2 µM
TGI (A498 renal): 33.2 µM
GI50 (SR leukemia): 8.5 µM
TGI (SR leukemia): 43.5 µM
GI50 (RPMI-8226 leukemia): 3.95 µM
TGI (RPMI-8226 leukemia): 20.5 µM
GI50 (A549 NSCLC): 21.9 µM
TGI (A549 NSCLC): 53.9 µM
GI50 (SF-295 CNS): 16.8 µM
TGI (SF-295 CNS): 35 µM
GI50 (TK-10 renal): 17.9 µM
TGI (TK-10 renal): 34.9 µM
GI50 (UO-31 renal): 14.1 µM
TGI (UO-31 renal): 28 µM
GI50 (HL-60(TB) leukemia): 25 µM
TGI (HL-60(TB) leukemia): 94.5 µM
GI50 (UACC-257 melanoma): 16.1 µM
TGI (UACC-257 melanoma): 33.1 µM
GI50 (HOP-92 NSCLC): 19.6 µM
TGI (HOP-92 NSCLC): 41.2 µM
GI50 (SF-268 CNS): 18.7 µM
TGI (SF-268 CNS): 36.9 µM
GI50 (SK-MEL-28 melanoma): 19.8 µM
TGI (SK-MEL-28 melanoma): 39.6 µM
GI50 (CCRF-CEM leukemia): 17.9 µM
TGI (CCRF-CEM leukemia): 62.4 µM
GI50 (M14 melanoma): 18.8 µM
TGI (M14 melanoma): 38.9 µM
GI50 (HCT-116 colon): 12.9 µM
TGI (HCT-116 colon): 27.4 µM
GI50 (MCF7 breast): 4.12 µM
TGI (MCF7 breast): 21 µM
GI50 (OVCAR-5 ovarian): 19.3 µM
TGI (OVCAR-5 ovarian): 47.1 µM
GI50 (K-562 leukemia): 8.05 µM
TGI (K-562 leukemia): 80.8 µM
GI50 (LOX IMVI melanoma): 11.9 µM
TGI (LOX IMVI melanoma): 26.5 µM
GI50 (NCI-H522 lung): 15.4 µM
TGI (NCI-H522 lung): 34.9 µM
GI50 (MDA-MB-435): 12 µM
TGI (MDA-MB-435): 30.1 µM
GI50 (SNB-19 CNS): 16.8 µM
TGI (SNB-19 CNS): 34 µM
GI50 (NCI/ADR-RES ovarian): 18.3 µM
TGI (NCI/ADR-RES ovarian): 56.3 µM
GI50 (RXF 393 renal): 15.2 µM
TGI (RXF 393 renal): 29.2 µM
GI50 (ACHN renal): 18.1 µM
TGI (ACHN renal): 34.9 µM
GI50 (DU-145 prostate): 3.95 µM
TGI (DU-145 prostate): 14.9 µM
GI50 (PC-3 prostate): 23.9 µM
TGI (PC-3 prostate): 61.4 µM
GI50 (MDA-MB-231 breast): 26 µM
TGI (MDA-MB-231 breast): 72.8 µM
GI50 (MALME-3M melanoma): 17.9 µM
TGI (MALME-3M melanoma): 35.2 µM
GI50 (SF-539 CNS): 19.4 µM
TGI (SF-539 CNS): 45.5 µM
GI50 (SK-MEL-2 melanoma): 20.4 µM
TGI (SK-MEL-2 melanoma): 38.2 µM
GI50 (U251 CNS): 7.19 µM
TGI (U251 CNS): 20.7 µM
GI50 (SK-MEL-5 melanoma): 17.1 µM
TGI (SK-MEL-5 melanoma): 31.2 µM
GI50 (HCT-15 colon): 14.6 µM
TGI (HCT-15 colon): 48 µM
GI50 (NCI-H460 lung): 19.5 µM
TGI (NCI-H460 lung): 41.6 µM
GI50 (SN12C renal): 18.3 µM
TGI (SN12C renal): 37 µM
GI50 (T-47D breast): 14.2 µM
TGI (T-47D breast): 48.7 µM
GI50 (BT-549 breast): 26.4 µM
TGI (BT-549 breast): 62 µM
GI50 (HOP-62 NSCLC): 18.1 µM
TGI (HOP-62 NSCLC): 35.4 µM
GI50 (EKVX NSCLC): 16 µM
TGI (EKVX NSCLC): 30.6 µM
GI50 (NCI-H226 lung): 24.7 µM
TGI (NCI-H226 lung): 75.2 µM
GI50 (COLO 205 colon): 18 µM
TGI (COLO 205 colon): 32.4 µM
